For assay [1], the system named is glycerol-induced renal insufficiency in male Sprague-Dawley rats. Put plainly: Protective activity against glycerol-induced renal insufficiency. The class given is in vivo. To be noted: for Urea (plasma): glycerol-injected rats, 24 h after injection; for effect on the elevated plasma urea and creatinine concentrations: glycerol-induced acute renal insufficiency, oral or intraperitoneal, result in words.

In the next assay the test system is isolated perfused kidney. The assay can be described thus: Protective activity against lithium-induced nephrotoxicity in the isolated perfused kidney (histamine release). Also noted: species or system Wistar rats. To be noted: for Percentage changes vs controls in histamine released: lithium 6 mEq/L after 20 min perfusion of carnitine 200 mM/L; for effect on histamine release induced by the renal toxic action of lithium: isolated perfused kidney, result in words. The text has this:
This test was used to assess the protective activity of the combination of acetyl L-carnitine plus propionyl L-carnitine against the well-known nephrotoxic activity of lithium. Lithium presents a particular tropism at the renal tubule level and can cause tubular necrosis.
In this test Wistar rates with a mean body weight of 400 g were anaesthetised and nephrectomised. The excised kidneys were perfused according to the technique described by Shureck (Shureck H. J., Pflügers Arch., 354, 1975) as modified by Maach (Maach T., Kidney Int., 30, 142, 1986; Maach T., Ann. J. Physiol., 238, 1980).
Immediately after isolation of the kidney, the renal artery and outflow vein were catheterised and the resulting preparation was placed in a chamber containing a Krebs solution heated to 37° C. The oxygenised Krebs solution was pumped into the system by means of a pulsatile pump at a rate of 0.8 ml/min/g.
Lithium was administered via the perfusion pump at a dose of 6 mEq/L after perfusion during the previous 20 minutes of a solution containing acetyl L-carnitine or propionyl L-carnitine (200 mM/L) or a combination of the two compounds.
After the lithium infusion, the venous perfusion fluid was collected at five-minute intervals for fifteen minutes and its histamine content was measured with a fluorometric method (Hakanson R., Anal. Biochem., 47, 356, 1972). Histamine release is considered a marker of the severity of tubular damage (Bertelli A., Drugs Exptl. Clin Res., 7, 53, 1981).

Assay [2] has as its system ochratoxin A-induced renal toxic lesions in Wistar rats. Put plainly: Protective activity against renal abnormalities induced by ochratoxin A. The class given is in vivo. To be noted: for ALP (alkaline phosphatase) / GGT (gamma-glutamyl transferase) / NAG (N-acetyl-β-D-glucosaminidase): 24-hour urine, 300 mg/kg (of each drug) oral for 10 days with ochratoxin A; for effect on enzymuria induced by ochratoxin and serum creatinine levels: ochratoxin-intoxicated rats, result in words. The text has this:
In experimental animals, particularly rats, it is possible to reproduce tubulo-interstitial nephropathy similar to that encountered in man and known as Balkans Endemic Nephropathy (BEN) by means of the administration of a mycotoxin produced by Aspergillus ochraceus which is present as a contaminant in various foodstuffs and is known as ochratoxin A (Kniper-Goodman T., Scott P., Biomed. Environ. Sci., 2, 179, 1989).
The administration of small amounts of this toxin causes a series of renal abnormalities in the rat with a reduction in glomerular filtration and lesions at the level of the proximal tubule to such an extent as to cause renal atrophy.
In this test a batch of Wistar rats with a mean body weight of 200 g was divided into various groups, one of which served as a control group, while another was administered […] of ochratoxin (Sigma Chemical, St. Louis, Mo. U.S.A.) by gastric probe every 48 hours for a period of ten days. The remaining groups, in addition to ochratoxin, also received oral administrations of 300 mg/ks of acetyl L-carnitine or 300 mg/kg of propionyl L-carnitine or a combination of the two carnitines for the entire 10-day treatment period.
At the end of treatment, the animals were placed in metabolic cages and 24-hour urine was submitted to spectrophotometric evaluation of the enzymes alkaline phosphatase (ALP), gamma-glutamyl transferase (GGT) and N-acetyl-β-D-glucosaminidase (NAG) as indicators of renal damage.
Serum creatinine concentrations were also measured.

The mark [3] stands for this setting: 5 minutes post-lithium-infusion.
Setting [4] is: 10 minutes post-lithium-infusion.
Where [5] appears, read: 15 minutes post-lithium-infusion.

For `CCC(=O)O[C@H](CC(=O)[O-])C[N+](C)(C)C` [PC, Propionyl L-carnitine], the “Urea (plasma)” value in assay [1] (100 mg/kg (of each drug) i.p.) is reported as 100.5 ± 9.8 mg/100 ml; in assay [1] (100 mg/kg (of each drug) oral), 107.4 ± 30.2 mg/100 ml; in assay [1] (500 mg/kg (of each drug) i.p.) it was 80.2 ± 6.6 mg/100 ml; in assay [1] (500 mg/kg (of each drug) oral), 90.2 ± 31.4 mg/100 ml. In addition, the “effect on the elevated plasma urea and creatinine concentrations” value in assay [1] is “only slight changes”. Also, the “Percentage changes vs controls in histamine released” value in the assay on isolated perfused kidney (setting [3]) turned out to be 45.8 ± 4.5%; in the assay with isolated perfused kidney (setting [4]), 30.4 ± 2.9%; in the assay on isolated perfused kidney (setting [5]) it was 10.4 ± 0.9%. Further, the “effect on histamine release induced by the renal toxic action of lithium” value in the assay with isolated perfused kidney was “reduced”. For the same compound, the “ALP (alkaline phosphatase)” value in assay [2] turned out to be 7.5 ± 0.9 U/I. For the same compound, in assay [2], the “GGT (gamma-glutamyl transferase)” value turned out to be 16.5 ± 2.2 U/I. Also, in assay [2], the “NAG (N-acetyl-β-D-glucosaminidase)” value was determined as 44.2 ± 4.5 U/I. For the same compound, the “effect on enzymuria induced by ochratoxin and serum creatinine levels” value in assay [2] is given as “reduced”.
Turning to `CC(=O)O[C@H](CC(=O)[O-])C[N+](C)(C)C` [ACL, Acetyl L-carnitine], the “Urea (plasma)” value in assay [1] (100 mg/kg (of each drug) i.p.) is recorded as 104.7 ± 12.4 mg/100 ml; in assay [1] (100 mg/kg (of each drug) oral), 110.9 ± 21.6 mg/100 ml; in assay [1] (500 mg/kg (of each drug) i.p.), 98.5 ± 10.6 mg/100 ml; in assay [1] (500 mg/kg (of each drug) oral), 105.4 ± 29.4 mg/100 ml. In addition, in assay [1], the “effect on the elevated plasma urea and creatinine concentrations” value is given as “only slight changes”. The entries for the “Percentage changes vs controls in histamine released” value with isolated perfused kidney (setting [3]), in the assay on isolated perfused kidney (setting [4]) and with isolated perfused kidney (setting [5]) were 55.8 ± 6.1%, 36.8 ± 3.1% and 12.5 ± 1.5%, respectively. Moreover, the “effect on histamine release induced by the renal toxic action of lithium” value in the assay with isolated perfused kidney is reported as “reduced”. For the same compound, the “ALP (alkaline phosphatase)” value in assay [2] stood at 8.8 ± 1.1 U/I. In assay [2], the “GGT (gamma-glutamyl transferase)” value stood at 17.2 ± 1.9 U/I. Moreover, the “NAG (N-acetyl-β-D-glucosaminidase)” value in assay [2] is on record as 48.8 ± 5.1 U/I. For the same compound, the “effect on enzymuria induced by ochratoxin and serum creatinine levels” value in assay [2] is “reduced”.

The values are drawn from patent US7585896B2, “Composition for the prevention and treatment of kidney dysfunctions and diseases” (Sigma-Tau Industrie Farmaceutiche Riunite S.p.A., priority 1999, dated 2009).
